Measurements published in patent publication US20260000735A1, “ENHANCED DIFFERENTIATION OF BETA CELLS” (Vertex Pharmaceuticals Incorporated, priority 2019, published 2026).

Columns and labels:
Format in all cases: cell-based
[1] = test system: SC-β cells (Nkx6.1/Isl1 double positive cells); assay: Percent SC-β cells (Nkx6.1/Isl1 double positive) by FACS; conditions: for SC-β cell percent in stage 6: added to the culture medium during days 1-10 of stage 6, JJKK 048 1 μM, KML 29 10 μM, NF 1819 10 μM
Procedure: (§1) In this instance cryopreserved stage 5 individual cells were thawed and cultured in a modified stage 5 (S5) medium during the first 4 days of Stage 6 (S6d1-d4) […], with subsequent culture of the cells in Stage 6 (S6) medium (see experimental outline in FIG. 2).
(§2) The effect of supplementing the modified S5 medium used in stage 6 with one or more saturated fatty acid of unsaturated fatty acid was analyzed. The fatty acids analyzed included palmitate (saturated fatty acid), oleic acid (unsaturated fatty acid), linoleic acid (unsaturated fatty acid), and palmitoleic acid (unsaturated fatty acid) (see protocol is outlined in FIG. 20). The fatty acid free HSA+fatty acid were stirred for 1 hour at 37° C.
MGLL (monoacylglycerol lipase) is a serine hydrolase that catalyzes the conversion of monoacylglycerides to free fatty acids and glycerol. The effect of three highly specific MGLL inhibitors (JJKK 048 (1 μM), KML 29 (10 μM), NF 1819 (10 μM)) on SC-β cell production was analyzed.
Stage 5 insulin-positive endocrine cell clusters were differentiated from stem cells as described herein. The insulin-positive endocrine cell clusters were dissociated such that the majority of the dissociated cells were now individual cells, and the cells were then cryopreserved, and thawed. The thawed individual cells were then differentiated into β cell clusters through a stage 6 differentiation. […] The base medium of MDCB 131 with 0.05% HSA was used for days 5-11 of stage 6 (FIG. 30, FIG. 31).

[2] = test system: thawed cryopreserved stage 5 cells; assay: Cell recovery / viable cell number in stage 6 culture after thaw of cryopreserved stage 5 cells; conditions: inclusion in DS3 media
Procedure: The insulin-positive endocrine progenitor cell clusters were dissociated such that the majority of the dissociated cells were individual cells, and the cells were cryopreserved, and thawed. The thawed cells are then differentiated into β cell clusters through a stage 6 differentiation. The stage 6 culture medium comprises DMEM F12 base with 1% human serum albumin (HSA), and optionally 1.5 μM zinc (“DS2 medium”). […] Thus, whether alteration of the S6 medium could improve recovery was analyzed.
In this instance cryopreserved stage 5 individual cells were thawed and cultured in a modified stage 5 (S5) medium during the first 4 days of Stage 6 (S6d1-d4) (approximately 72 hours), with subsequent culture of the cells in Stage 6 (S6) medium (see experimental outline in FIG. 2).
Several factor drop out experiments were conducted to identify the contribution of each factor.

SC-islet cell clusters = assay: Cell cluster size, morphology, homogeneity, re-aggregation and stability (microscopy); conditions: day 6 of stage 6 (S6d6), fatty acid supplementation
Procedure: as §2
A select number of metabolites were included in the DS6 medium, including: glutamate, acetate, β hydroxybutarate, L-caratine, taurine, formate, and biotin.

SC-β cells / SC-islets = assay: Glucose stimulated insulin secretion (GSIS), human C-peptide per 1000 cells; conditions: day 10 of stage 6 (S6d10); addition post day 4 of stage 6
Procedure: FIG. 18A is a bar graph showing the glucose stimulated insulin secretion (GSIS) of cells at day 12 of stage 6 (S6d12). GSIS was measured as the level of human C-peptide (pM) per 1000 cells after glucose stimulation. The cells were cultured in stage 6 (S6) medium+1% HSA for days 1-12 of stage 6.
A range of 2.8 mM and 20 mM glucose was used to stimulate GSIS (See experimental protocol FIG. 13).

SC-β cells = assay: Number / recovery / yield of SC-β cells in stage 6; conditions: day 10 of stage 6; with 0.5% HSA
Procedure: as §1, §2

| Compound | SC-β cell percent in stage 6 [1] | size of the cell clusters (SC-islet cell clusters) | further results |
| --- | --- | --- | --- |
| O=C(N1CCC(C(c2ccc3c(c2)OCO3)c2ccc3c(c2)OCO3)CC1)n1cncn1 [JJKK 048] | around 50% | – | – |
| O=C(OC(C(F)(F)F)C(F)(F)F)N1CCC(C(O)(c2ccc3c(c2)OCO3)c2ccc3c(c2)OCO3)CC1 [KML 29] | around 50% | – | – |
| O=C1[C@H](c2ccc(F)cc2)[C@@H](c2ccc3c(c2)OCO3)N1C1CCN(C(=O)n2cncn2)CC1 [NF 1819] | around 50% | – | – |
| O=S(=O)([O-])[O-].[Zn+2] [ZnSO4] | – | – | S6d4 viable cell number [2]: greatly improves S6d4 viable cell number |
| CCCCC/C=C\C/C=C\CCCCCCCC(=O)O [linoleic acid] | – | enhances the size of the cell clusters | – |
| CCCCCCCCCCCCCCCC(=O)O [palmitate, palmitic acid] | – | enhances the size of the cell clusters | GSIS (SC-β cells / SC-islets): improves GSIS; total number of SC-β cells recovered (SC-β cells): enhanced the total number of SC-β cells recovered; percent of SC-β cells (Nkx6.1/Isl1 double positive cells) recovered ([1]; fatty acid added to the modified S5 medium, days 1-4 of stage 6): improved |
